Consider 26 molecules from patent US10307439B2, “Substituted nucleosides, nucleotides and analogs thereof” (priority 2014, dated 2019).

The test system of experiment [1] is Chikungunya virus. The experiment is described as follows: Chikungunya assay. It is filed as cell-based. To be noted: 2 h pre-incubation.
In experiment [2] the test system is TC-83 strain Venezuelan equine encephalitis virus. As to the kind of experiment: microbe, parasite or virus in culture. It is filed as cell-based.
For experiment [3], the system named is MERS. The experiment is described as follows: microbe, parasite or virus in culture. To be noted: Middle East respiratory syndrome-related coronavirus, 96 h. The experiment is classed as cell-based.
In experiment [4] the test system is human β-coronavirus strain OC43 or human α-coronavirus strain 229E. The experiment is described as follows: Coronavirus assay (cytopathic effect, CellTiter-Glo, HeLa or MRC-5 cells). The experiment is classed as cell-based. As to conditions: Betacoronavirus 1; for EC50: coronavirus strain OC43 or 229E not specified, 4 h pre-incubation, 5 days; for inhibition: at one or more of the concentrations 75 μM, 10 μM and 2 μM, strain OC43 or 229E not specified. In general terms: Protection from cytopathic effect is a common read-out in antiviral testing.

In experiment [5] the target is SARS polymerase (Severe acute respiratory syndrome coronavirus, UniProt P0C6X7). The experiment is described as follows: biochemical. Set-up: species or system SARS virus.

The term EC50 denotes the concentration giving half of the maximal effect. For `CC(C)OC(=O)OCOP(=O)(OCOC(=O)OC(C)C)OC[C@@]1(F)O[C@@H](n2ccc(=O)[nH]c2=O)[C@](C)(O)[C@@H]1O` [Compound 9], the EC50 in experiment [1] and in experiment [2] was below 10 µM in each case.

What is called EC90 is the concentration at which the effect reaches the 90% level. A low value points to greater potency. `CC(C)(C)C(=O)OCOP(=O)(OCOC(=O)C(C)(C)C)OC[C@H]1O[C@@H](n2ccc(=O)[nH]c2=O)[C@](C)(O)[C@@H]1O` [Compound 265] registered an EC90 in experiment [3] of 10 to 50 µM. For the same molecule, the EC50 in experiment [1] and in experiment [2] was below 10 µM each time.

In turn, `CCOc1nc(N)nc2c1ncn2[C@@H]1O[C@](CN=[N+]=[N-])(COP(=O)(OCOC(=O)OC(C)C)OCOC(=O)OC(C)C)[C@@H](O)[C@H]1F` [Compound 179] showed an EC50 in experiment [4] below 10 µM.

For orientation: IC50 means the concentration needed to halve the response being measured. Read a high IC50 as a need for much substance. For the molecule `C#C[C@]1(O)[C@H](n2cnc3c(=O)[nH]c(N)nc32)O[C@](F)(COP(=O)(O)OP(=O)(O)OP(=O)(O)O)[C@H]1F` [Compound 103], the IC50 in experiment [5] is below 10 µM.

As a reminder, the inhibition is the change of the read-out against control, counted positive when it falls. Take `CCOc1nc(N)nc2c1ncn2[C@@H]1O[C@](F)(CO[P@](=O)(N[C@@H](C)C(=O)OC2CCCCC2)Oc2ccccc2)[C@@H](O)[C@@]1(C)F` (single isomer, unassigned) [Compound 212a]: in experiment [4], the inhibition is at least 50% and the concentration for a half-maximal effect (EC50) was below 10 µM.

In experiment [3], `CCOc1nc(N)nc2c1ncn2[C@@H]1O[C@](F)(CO[P@](=O)(N[C@@H](C)C(=O)OC2CCCCC2)Oc2ccccc2)[C@@H](O)[C@@]1(C)F` [Compound 25] registered a concentration for an effect of 90% (EC90) of 10 to 50 µM. In addition, the EC50 in experiment [1] and in experiment [2] was below 10 µM in each case.

In experiment [4], `CCOc1nc(N)nc2c1ncn2[C@@H]1O[C@](F)(COP(=O)(N[C@@H](C)C(=O)OC(C)C)Oc2ccccc2)[C@@H](F)[C@@]1(C)O` (stereo partly drawn) [Compound 22] yielded an inhibition of at least 50%.

As to `C[C@H](NP(=O)(OC[C@H]1O[C@@H](n2cnc3c(=O)[nH]c(N)nc32)[C@](C)(Cl)[C@@H]1O)Oc1ccccc1)C(=O)OC1CCCCC1` (stereo partly drawn) [Compound 266], the EC90 in experiment [3] is below 10 µM.

Consider `CCOc1nc(N)nc2c1ncn2[C@@H]1O[C@](F)(CO[P@@](=O)(N[C@@H](C)C(=O)OC2CCCCC2)Oc2ccccc2)[C@@H](O)[C@@]1(C)F` (single isomer, unassigned) [Compound 212b], for which, in experiment [4], the inhibition is at least 50% and the EC50 is below 10 µM.

Consider `CCOc1nc(N)nc2c1ncn2[C@@H]1O[C@](F)(COP(=O)(N[C@@H](C)C(=O)OCC(C)(C)C)Oc2cccc3ccccc23)[C@@H](O)[C@@]1(C)F` (stereo partly drawn) [Compound 234], for which, in experiment [4], the inhibition is at least 50%.

As for `CCOc1nc(N)nc2c1ncn2[C@@H]1O[C@](CF)(COP(=O)(N[C@@H](C)C(=O)OC2CCCCC2)Oc2ccccc2)[C@@H](O)[C@@]1(C)O` (stereo partly drawn) [Compound 36], the EC90 in experiment [3] was below 10 µM.

Take `CCOc1nc(N)nc2c1ncn2[C@@H]1O[C@](F)(COP(=O)(OCOC(=O)OC(C)C)OCOC(=O)OC(C)C)[C@@H](O)[C@@]1(C)O` [Compound 55]: the inhibition in experiment [4] was at least 50%. Moreover, the EC50 in experiment [4], in experiment [1] and in experiment [2] was below 10 µM in each case.

In experiment [4], `CCOc1nc(N)nc2c1ncn2[C@@H]1O[C@](F)(COP(=O)(N[C@@H](C)C(=O)OC2CCCCC2)Oc2ccccc2)[C@@H](F)[C@@]1(C)O` (stereo partly drawn) [Compound 16] showed an EC50 below 10 µM.

The molecule `C#C[C@]1(O)[C@H](n2cnc3c(OCC)nc(N)nc32)O[C@](F)(CO[P@](=O)(N[C@@H](C)C(=O)OC2CCCCC2)Oc2ccccc2)[C@H]1O` [Compound 27] returned an EC90 in experiment [3] of 10 to 50 µM.

In turn, `C#C[C@]1(F)[C@H](n2cnc3c(=O)[nH]c(N)nc32)O[C@](F)(COP(=O)(O)OP(=O)(O)OP(=O)(O)O)[C@H]1O` [Compound 123] displayed an IC50 in experiment [5] below 10 µM.

Molecule `C[C@H](NP(=O)(OC[C@@]1(F)O[C@@H](n2cnc3c(=O)[nH]c(N)nc32)[C@](C)(O)[C@@H]1F)Oc1ccccc1)C(=O)OC1CCCCC1` (stereo partly drawn) [Compound 14] yielded an inhibition in experiment [4] of at least 50%.

The molecule `C[C@]1(O)[C@H](n2cnc3c(=O)[nH]c(N)nc32)O[C@](F)(COP(=O)(O)OP(=O)(O)OP(=O)(O)O)[C@H]1F` [Compound 101] showed an IC50 in experiment [5] below 10 µM.

Consider `C[C@@]1(F)[C@H](O)[C@@](CF)(COP(=O)(O)OP(=O)(O)OP(=O)(O)O)O[C@H]1n1cnc2c(=O)[nH]c(N)nc21` [Compound 162], for which, in experiment [5], the IC50 is below 10 µM.

Consider `CCOc1nc(N)nc2c1ncn2[C@@H]1O[C@](F)(COP(=O)(OCOC(=O)OC(C)C)OCOC(=O)OC(C)C)[C@@H](F)[C@@]1(C)O` [Compound 57], for which, in experiment [4], the inhibition was at least 50% and the EC50 was below 10 µM. The molecule further displayed a 90% effect concentration (EC90) in experiment [3] below 10 µM.

For `CCOc1nc(N)nc2c1ncn2[C@@H]1O[C@H](COP(=O)(N[C@@H](C)C(=O)OC2CCCCC2)Oc2ccccc2)[C@@H](O)[C@@]1(C)Cl` (stereo partly drawn) [Compound 267], the EC90 in experiment [3] lay within 10 to 50 µM.

For `CCOc1nc(N)nc2c1ncn2[C@@H]1O[C@]2(F)COP(=O)(OC(C)C)O[C@H]2[C@@]1(C)F` (stereo partly drawn) [Compound 225], in experiment [4], the inhibition is at least 50%.

In experiment [5], `C[C@]1(F)[C@H](n2cnc3c(=O)[nH]c(N)nc32)O[C@](F)(COP(=O)(O)OP(=O)(O)OP(=O)(O)O)[C@H]1O` [Compound 19] displayed an IC50 below 10 µM.

As to `C[C@@]1(O)[C@H](O)[C@@](CF)(COP(=O)(O)OP(=O)(O)OP(=O)(O)O)O[C@H]1n1cnc2c(=O)[nH]c(N)nc21` [Compound 34], the half-maximal inhibitory concentration (IC50) in experiment [5] is below 10 µM.

On to `C[C@@]1(Cl)[C@H](O)[C@@H](COP(=O)(O)OP(=O)(O)OP(=O)(O)O)O[C@H]1n1cnc2c(=O)[nH]c(N)nc21` [Compound 246], for which, in experiment [5], the IC50 was below 10 µM.

For the molecule `C#C[C@@]1(O)[C@H](O)[C@@H](COP(=O)(O)OP(=O)(O)OP(=O)(O)O)O[C@H]1n1cnc2c(=O)[nH]c(N)nc21` [Compound 203], the IC50 in experiment [5] is below 10 µM.

As to `CCOc1nc(N)nc2c1ncn2[C@@H]1O[C@](F)(COP(=O)(OCOC(=O)OC(C)C)OCOC(=O)OC(C)C)[C@@H](O)[C@@]1(C)F` [Compound 83], in experiment [4], the inhibition is at least 50% and the concentration for a half-maximal effect (EC50) is below 10 µM.
